In the NIST ThermoML archive (doi:10.1016/j.jct.2018.12.044) one finds Normal melting temperature data, which are given here for one molecule.

Numbers after ± are expanded uncertainties.

For this data set the following is noted: Crystal; DTA.

In the case of `CC[C@H]1OC(=O)[C@H](C)[C@@H](O[C@H]2C[C@@](C)(OC)[C@@H](O)[C@H](C)O2)[C@H](C)[C@@H](O[C@@H]2O[C@H](C)C[C@H](N(C)C)[C@H]2O)[C@](C)(O)C[C@@H](C)[C@@H]2N[C@@H](COCCOC)O[C@H]([C@H]2C)[C@]1(C)O` [Dirithromycin], the Normal melting temperature was found to be 194.36 ± 6 °C.
